Results from patent US6982260B1, “Quinazolines and their use for inhibiting cyclin-dependent kinase enzymes” (Warner-Lambert Company, priority 1999, dated 2006).
Read-outs that look alike come from different tables or passages of the source.

Assays:
neointima formation = conditions: intraluminal exposure of a denuded rat carotid artery; cited from earlier work
[1] = tested on: herpes simplex virus (HSV); conditions: cited from earlier work
cdc2/cyclinB = cdc2/cyclinB (Homo sapiens, UniProt P06493); assay: cdc2/cyclinB kinase assay (Table 1, CdkB); type: biochemical; conditions: 32P incorporation into retinoblastoma, 25° C., 15 minutes
Sequence of cdc2/cyclinB (P06493 whole entry, species assumed): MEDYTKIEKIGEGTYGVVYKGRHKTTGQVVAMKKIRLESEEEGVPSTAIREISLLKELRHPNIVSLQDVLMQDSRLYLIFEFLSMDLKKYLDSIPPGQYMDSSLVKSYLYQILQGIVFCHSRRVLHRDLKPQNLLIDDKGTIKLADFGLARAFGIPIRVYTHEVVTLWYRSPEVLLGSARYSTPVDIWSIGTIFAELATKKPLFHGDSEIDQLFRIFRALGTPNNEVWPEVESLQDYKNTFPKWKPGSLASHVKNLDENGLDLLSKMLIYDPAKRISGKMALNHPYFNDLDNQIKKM
Sequence of cdc2/cyclinB (P14635 whole entry partner, species assumed): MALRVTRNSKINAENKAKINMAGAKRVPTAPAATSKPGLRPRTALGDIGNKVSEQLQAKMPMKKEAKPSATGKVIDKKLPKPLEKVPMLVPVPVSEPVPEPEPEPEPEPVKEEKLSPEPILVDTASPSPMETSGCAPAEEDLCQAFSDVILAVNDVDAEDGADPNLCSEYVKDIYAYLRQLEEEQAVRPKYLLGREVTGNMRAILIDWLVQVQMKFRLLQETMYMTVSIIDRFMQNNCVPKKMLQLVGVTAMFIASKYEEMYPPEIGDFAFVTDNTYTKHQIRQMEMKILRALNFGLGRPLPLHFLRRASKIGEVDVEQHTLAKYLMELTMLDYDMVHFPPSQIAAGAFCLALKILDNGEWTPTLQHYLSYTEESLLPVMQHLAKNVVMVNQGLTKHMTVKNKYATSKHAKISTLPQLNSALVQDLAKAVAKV
Description: (§1) All components except the ATP were added to the wells, and the plate was placed on a plate mixer for 2 minutes. The reaction was begun by addition of [^32P]ATP, and the plate was incubated at 25° C. for 15 minutes. The reaction was terminated by addition of 0.1 mL of 20% TCA. The plate was kept at 4° C. for at least 1 hour to allow the substrate to precipitate. The wells were then washed five times with 0.2 mL of 10% TCA and ^32P incorporation determined with a beta plate counter (Wallac Inc., Gaithersburg, Md.).

cdk2/A = cdk2/A (Homo sapiens, UniProt P24941); assay: cdk2/A kinase assay; type: biochemical; conditions: 32P incorporation into retinoblastoma, 25° C., 15 minutes; read-out: Cdk2A IC50
Description: as §1

cdk2/cyclinE = cdk2/cyclinE (Homo sapiens, UniProt P24941); assay: cdk2/cyclinE kinase assay; type: biochemical; conditions: 32P incorporation into retinoblastoma, 25° C., 15 minutes; read-out: Cdk2E IC50
Description: as §1

cdk4/D = cdk4/D (Homo sapiens, UniProt P11802); assay: Cyclin-Dependent Kinase 4 (cdk4) Assay; type: biochemical
Sequence of cdk4/D (P11802 whole entry, species assumed): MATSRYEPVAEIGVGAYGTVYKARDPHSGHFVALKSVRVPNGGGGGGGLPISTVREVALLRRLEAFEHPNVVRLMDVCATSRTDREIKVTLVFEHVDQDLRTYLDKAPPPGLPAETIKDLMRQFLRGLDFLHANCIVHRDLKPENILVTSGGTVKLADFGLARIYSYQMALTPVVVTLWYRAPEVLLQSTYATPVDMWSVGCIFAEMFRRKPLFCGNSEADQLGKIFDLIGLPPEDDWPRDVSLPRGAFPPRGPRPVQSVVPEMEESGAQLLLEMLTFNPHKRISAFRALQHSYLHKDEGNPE
Sequence of cdk4/D (P24385 whole entry partner, species assumed): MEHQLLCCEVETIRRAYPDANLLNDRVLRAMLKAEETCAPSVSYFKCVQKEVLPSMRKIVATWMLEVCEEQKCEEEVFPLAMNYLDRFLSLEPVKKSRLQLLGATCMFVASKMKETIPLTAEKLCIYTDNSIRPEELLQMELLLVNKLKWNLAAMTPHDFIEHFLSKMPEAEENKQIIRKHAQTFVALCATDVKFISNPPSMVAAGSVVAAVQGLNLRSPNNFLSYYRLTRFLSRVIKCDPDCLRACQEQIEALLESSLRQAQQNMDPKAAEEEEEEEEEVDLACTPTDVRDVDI
Description: As noted above, the compounds of this invention are potent inhibitors of cyclin-dependent kinases, and accordingly, are useful in treating and preventing neurodegenerative disorders, atherosclerosis, and other cell proliferative disorders like cancer. […] A typical assay, for instance, measures inhibitory activity against the cyclin D dependent kinase 4 enzyme (cdk4/D). […] The cdk4 assay was carried out as follows.
Cyclin-Dependent Kinase 4 (cdk4) Assay
Enzyme assays for IC50 determinations (Table 1 above) and kinetic evaluation were performed in 96 well filter plates (Millipore MADVN6550). The total volume was 0.1 mL containing a final concentration of 20 mM TRIS (tris[hydroxymethyl]aminomethane), at pH 7.4, 50 mM NaCl, 1 mM dithiothreitol, 10 mM MgCl2, 25 μM ATP containing 0.25 μCi of [^32P]ATP, 20 ng of cdk4, 1 μg of retinoblastoma, and appropriate dilutions of a compound of the present invention. All components except the ATP were added to the wells, and the plate was placed on a plate mixer for 2 minutes. The reaction was started by adding [^32P]ATP and the plate was incubated at 25° C. for 15 minutes. The reaction was terminated by addition of 0.1 mL of 20% trichloroacetic acid (TCA). The plate was kept at 4° C. for at least 1 hour to allow the substrate to precipitate. The wells were then washed five times with 0.2 mL of 10% TCA and ^32P incorporation was determined with a beta plate counter (Wallac Inc., Gaithersburg, Md.).

| IC50 (cdk4/D; 25 μM ATP, retinoblastoma substrate, 25° C., 15 minutes, read-out: Cdk4 IC50) [nM] | Compound | inhibition of neointima formation (neointima formation) | HSV replication [1] | IC50 (cdc2/cyclinB) [nM] | IC50 (cdk2/A) [nM] | IC50 (cdk2/cyclinE) [nM] | melting point [°C] | IC50 (cdk4/D) [nM] |
| --- | --- | --- | --- | --- | --- | --- | --- | --- |
| – | COc1ccc(CNc2nc(N(CCO)CCO)nc3c2ncn3C(C)C)cc1 [CVT-313] | greater than 80% | – | – | – | – | – | – |
| – | CC[C@H](CO)Nc1nc(NCc2ccccc2)c2ncn(C(C)C)c2n1 [roscovitine] | – | inhibited | – | – | – | – | – |
| 63 | COc1ccc2cnc(Nc3ccc(N4CCN(C(=O)OC(C)(C)C)CC4)cc3)nc2c1C(C)C [Example 25, 4-[4-(8-Isopropyl-7-methoxy-quinazolin-2-ylamino)-phenyl]-piperazine-1-carboxylic Acid Tert-butyl Ester] | – | – | 10200 | 1620 | 10000 | 173 to 175 | – |
| – | COc1ccc2cnc(Nc3ccc(N4CCC(N)C4)cc3)nc2c1C1CCCC1 (centres unmarked) [Example 41, [4-(3-Amino-pyrrolidin-1-yl)-phenyl]-(8-cyclopentyl-7-methoxy-quinazolin-2-yl)-amine] | – | – | 398 | 203 | 950 | 220 to 221 | 116 |
| – | COc1ccc2cnc(Nc3ccc(N4CCN(C(=O)CN)CC4)cc3)nc2c1C1CCCC1 [Example 40, 2-Amino-1-{4-[4-(8-cyclopentyl-7-methoxy-quinazolin-2-ylamino)-phenyl]-piperazin-1-yl}-ethanone] | – | – | 270 | 95 | 450 | 202 | 2 |
